The record followed here is BindingDB's records for doi:10.1074/jbc.M111.290619 (Washington University, 2011).

As usually defined, the Kd is a measure of binding affinity in units of concentration. The term IC50 denotes the midpoint of a concentration-inhibition curve. Higher therefore signals weaker potency.

Molecules are shown by their SMILES. Several values for one entry are separate records, joined by “and”; a condition that tells them apart may be missing. Equal values may be shown once.

Assay [1] has as its target T1, Phosphoethanolamine N-methyltransferase 1 (Caenorhabditis elegans, UniProt Q86NB3).
T1 sequence (Q86NB3 whole entry): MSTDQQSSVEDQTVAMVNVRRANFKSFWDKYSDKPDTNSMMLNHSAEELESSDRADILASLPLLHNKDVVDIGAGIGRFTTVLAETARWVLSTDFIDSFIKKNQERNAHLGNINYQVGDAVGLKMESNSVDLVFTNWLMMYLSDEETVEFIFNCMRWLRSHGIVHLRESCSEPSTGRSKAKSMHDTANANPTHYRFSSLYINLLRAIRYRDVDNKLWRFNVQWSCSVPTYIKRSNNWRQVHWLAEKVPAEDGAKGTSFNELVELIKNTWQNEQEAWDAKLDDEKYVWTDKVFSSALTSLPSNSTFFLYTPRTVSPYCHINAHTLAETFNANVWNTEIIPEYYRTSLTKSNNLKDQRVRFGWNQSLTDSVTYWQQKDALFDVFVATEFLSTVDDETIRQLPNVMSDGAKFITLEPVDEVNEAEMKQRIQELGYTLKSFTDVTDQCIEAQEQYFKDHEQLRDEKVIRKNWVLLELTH
Description: Calorimetric (ITC) Assay. The conditions noted are these: pH 7.5. On the procedure:
(§1) For standard ITC analysis of ligand binding, proteins were dialyzed overnight in 25 mm Hepes (pH 7.5), 100 mm NaCl, 5 mm -mercaptoethanol, and 5% glycerol at 4 °C. Ligands (i.e. AdoMet, AdoCys, pEA, and pCho) were prepared in the same buffer. AdoMet and AdoCys concentrations were determined spectrophotometrically (A260 nm; = 15,400 m 1 cm 1) (19). ITC experiments were performed using a VP-ITC calorimeter (Microcal, Inc.). Injections (10 ul) of ligand were added to a sample solution containing protein using a computer-controlled 250-ul microsyringe at intervals of 5 6 min.

Assay [2] concerns the target T2, Phosphoethanolamine N-methyltransferase 2 (Caenorhabditis elegans, UniProt Q22993). Description: Radiochemical Assay. The following applies: pH 8; 25 °C. The source says: (§2) A radiochemical assay was used to measure enzymatic activity.
Assay [3] addresses T1, Phosphoethanolamine N-methyltransferase 1. The assay is described as follows: Radiochemical Assay. The following applies: pH 8; 25 °C.
Source text: as §2

In assay [4] the target is T2, Phosphoethanolamine N-methyltransferase 2. The assay is described as follows: Calorimetric (ITC) Assay. The following applies: pH 7.5. Here is the method:
as §1

T2 sequence (Q22993 whole entry): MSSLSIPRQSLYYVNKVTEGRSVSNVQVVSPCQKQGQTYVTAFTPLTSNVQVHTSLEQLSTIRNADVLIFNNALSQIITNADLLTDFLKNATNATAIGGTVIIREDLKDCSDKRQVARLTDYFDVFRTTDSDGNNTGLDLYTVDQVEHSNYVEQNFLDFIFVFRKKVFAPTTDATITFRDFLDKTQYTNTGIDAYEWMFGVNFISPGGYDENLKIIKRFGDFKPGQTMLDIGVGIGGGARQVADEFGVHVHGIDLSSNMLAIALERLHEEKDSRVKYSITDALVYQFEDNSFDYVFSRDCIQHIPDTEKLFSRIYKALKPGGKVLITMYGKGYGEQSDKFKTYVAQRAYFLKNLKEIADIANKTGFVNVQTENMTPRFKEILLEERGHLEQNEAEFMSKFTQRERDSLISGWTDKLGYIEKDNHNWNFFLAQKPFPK

As for `C[S+](CC[C@H](N)C(=O)[O-])C[C@H]1O[C@@H](n2cnc3c(N)ncnc32)[C@H](O)[C@@H]1O` (stereo partly drawn) [(2S)-2-amino-4-({[(2S,3S,4R,5R)-5-(6-amino-9H-purin-9-yl)-3,4-dihydroxyoxolan-2-yl]methyl}(methyl)sulfanylium)butanoate], the Kd is 47.2 µM and 19.1 µM and 10.7 µM and 5.8 µM in assay [1] (4 °C); 6.1 µM in assay [1] (5 °C); 8.2 µM in assay [1] (10 °C); 11.4 µM in assay [1] (15 °C); 16.6 µM in assay [1] (20 °C); 26.7 µM in assay [1] (25 °C).
As for `Nc1c2c(nc3ccccc13)CCCC2`, the IC50 in assay [2] was determined as 3500 µM; in assay [3], 23400 µM.
For `Nc1ncnc2c1ncn2[C@@H]1O[C@H](C[C@@H](N)CC[C@H](N)C(=O)O)[C@@H](O)[C@H]1O` [Sinefungin], in that order: 91.5 µM and 33.8 µM.
Take `CCCCCCCCCCCCCCCCOP(=O)([O-])OCC[N+](C)(C)C` [n-hexadecylphosphocholine]: the IC50 in assay [2] was found to be 12.5 µM; in assay [3], 125 µM.
As to `Nc1ncnc2c1ncn2[C@H]1O[C@@H](CSCC[C@@H](N)C(=O)O)[C@H](O)[C@@H]1O` [AdoCys], the Kd in assay [4] (4 °C) is 8.6 µM and 6 µM and 9.3 µM and 6.1 µM; in assay [4] (5 °C) it was 2 µM; in assay [4] (10 °C) it was 2.5 µM; in assay [4] (15 °C) it was 3 µM; in assay [4] (20 °C) it was 4.2 µM; in assay [4] (25 °C) it was 5.4 µM. The Kd is 2.9 µM and 2.2 µM and 1.3 µM and 0.9 µM in assay [1] (4 °C); 0.7 µM in assay [1] (5 °C); 0.8 µM in assay [1] (10 °C); 1.1 µM in assay [1] (15 °C); 1.6 µM in assay [1] (20 °C); 2.5 µM in assay [1] (25 °C).
`CCN(CC)Cc1cc(Nc2ccnc3cc(Cl)ccc23)ccc1O` [Amodiaquin]: the results for the IC50 in assay [2] and in assay [3] were 3100 µM and 3400 µM, respectively.
